This is an account of results in patent US5688936A, “Vesicle membrane transport proteins” (priority 1993, dated 1997).

“Also recorded” adds a separate entry of the source. Read-outs that look alike come from different tables or passages of the source.

Test [1] concerns amines and tyrosine hydroxylase. As to conditions: cited from earlier work.
The target of test [2] is T1, chromaffin granule amine transport protein (Rattus norvegicus, UniProt Q01818).
T1 sequence (Q01818 1-521): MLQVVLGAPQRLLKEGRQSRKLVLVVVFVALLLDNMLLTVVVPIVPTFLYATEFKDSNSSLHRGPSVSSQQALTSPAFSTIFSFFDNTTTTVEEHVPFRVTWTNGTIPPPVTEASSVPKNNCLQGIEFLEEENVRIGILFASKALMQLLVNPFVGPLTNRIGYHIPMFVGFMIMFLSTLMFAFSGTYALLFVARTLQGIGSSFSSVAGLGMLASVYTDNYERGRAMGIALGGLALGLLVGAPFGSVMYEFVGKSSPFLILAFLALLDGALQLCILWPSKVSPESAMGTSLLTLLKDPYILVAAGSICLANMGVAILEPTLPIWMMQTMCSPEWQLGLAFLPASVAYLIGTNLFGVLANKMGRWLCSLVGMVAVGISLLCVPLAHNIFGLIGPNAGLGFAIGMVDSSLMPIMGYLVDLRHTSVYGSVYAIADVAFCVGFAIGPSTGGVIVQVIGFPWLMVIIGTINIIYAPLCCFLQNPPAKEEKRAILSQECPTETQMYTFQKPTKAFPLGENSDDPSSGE
Briefly: cell-based. The class given is cell-based. On the procedure: Uptake and cellular compartmentalization of loaded dopamine were performed by growing cells on poly-lysine-coated glass coverslips. […] The cells were then washed three times in 0.1M sodium phosphate, pH 7.4, and incubated at 4° C. in 2% glyoxylic acid/0.5 mg% MgCl2, pH 4.9-5.0 for three minutes as described by de la Torre, J. Neurosci. Meth. 3:1-5 (1980). Briefly, excess solution is wiped off the bottom and edges of the slide using absorbent paper, taking care not to touch the section. The coverslips were then drained thoroughly, dried in air at 45° C. heated to 80° C. for five minutes, inverted over mineral oil on glass slides and examined under fluorescence using the appropriate filters as described by Knigge et al., Brain Res. 120:393-405 (1977). Briefly, the preparations were infiltrated with warm immersion oil and examined in a Leitz MPV2 microspectrofluorometer equipped with Schoffel excitation and emission grating monochromators, photomultipliers, and ratio computing circuitry. Cells were scanned with either monochromatic light (370 nm) or narrow band excitation (S405, BG3) light for the purpose of identifying fluorescence within cells. Ploem illumination was used in combination with a X 63 or X 100 oil immersion objective.
Dopamine-loaded fluorescence was carried out as described in Example 1. […] Glyoxylic-acid-induced fluorescence was used to determine the intracellular distribution as described above in Example 1. The procedures were the same as described in Example 1 however a pure cDNA clone encoding the vesicle membrane transport protein, selected in the presence of MPP^+, obtained as described herein, was used rather than the primary transformant. […]
The effects of various pharmacologic agents were tested to determine whether the properties of the protein encoded by the mpp^res cDNA corresponded with those expected for the chromaffin granule amine transport protein. […] The cells were pre-incubated in Krebs-Ringer buffer containing 1 μM pargyline and the dose of the drug indicated for 15 minutes. 25 nM [^3 H]-dopamine was then added in the same buffer and after incubation at 37° C. for one hour, the cells were washed in cold Krebs-Ringer buffer, lysed and counted in Ecolite (ICN) as described by Greene and Rein, Brain Res. 129:247-263 (1978). Values were determined from three separate wells and the mean was expressed as percent of control uptake±standard deviation. […] The dose required to inhibit maximal uptake by 50%, Ki, was estimated from the fluorescence data using a range of concentrations for each agent.

The target of test [3] is T1, chromaffin granule amine transport protein. Description: Quantitative [3H]dopamine transport assay with mpp^res CHO cell homogenate. The format is biochemical. Particulars: dose-response, 2-minute incubation (FIG. 15C). As for the experimental part: The quantity of label bound is measured after filtration of the assay mixture. Preferably, the label is a radioactive label. […] This can be done by standard graphic kinetic techniques such as the Lineweaver-Burke plot.
Incubation was performed at 29° C. for the time period indicated (from 2 minutes to 30 minutes). The assay was terminated by dilution in cold assay buffer followed by filtration through 0.2 μm Supor™ 200 membranes (Gelman, Ann Arbor, Mich.) and the bound radioactivity was measured. The cells used for the quantitative assay are selected in MPP^+ or screened with antibody to ensure that they express the transporter at high levels, as it is difficult to measure activity in this assay at low levels of transporter expression.
The quantitative transport test was performed as described above on wild-type CHO cells and mpp^res CHO cells.

Test [4] deals with vesicular amine transport protein. Particulars: cited from earlier work.

In general, Ki refers to a measure of affinity in units of concentration, obtained from inhibition or displacement.

`COC(=O)[C@H]1[C@H]2C[C@@H]3c4[nH]c5cc(OC)ccc5c4CCN3C[C@H]2C[C@@H](OC(=O)c2cc(OC)c(OC)c(OC)c2)[C@@H]1OC` [reserpine]: the “potentiation of amine depletion and reduction in tyrosine hydroxylase by MPP+” value in test [1] is “can potentiate the depletion of amines and reduction in tyrosine hydroxylase by MPP^+”. Besides, the “inhibition of vesicular dopamine uptake in the fluorescence assay” value in test [2] (50 nM) is on record as “inhibit vesicular dopamine uptake completely”. Also, in test [2] (1 μM), the “perinuclear and particulate cytoplasmic dopamine staining of MPP+-resistant CHO cells” value was “inhibited”. Also, the “Dopamine Fluorescence (mpp^res CHO)” value in test [2] (agent 1 μM, untreated control ++++, 12 hour dopamine loading) was 0. Also, in test [2] (dose required to inhibit maximal uptake by 50%, estimated from fluorescence data, read-out: Ki (est)), the Ki was 0.025 µM. Further, the “pattern of catecholamine accumulation in the MPP+-resistant transfectant” value in test [2] (reserpine concentration not stated) is listed as “reversion to the wild-type pattern of catecholamine accumulation; also recorded: reversed”. The “inhibition of dopamine transport” value in test [3] was “inhibition by both reserpine and tetrabenazine”. For the same compound, the “inhibition of vesicular amine transport” value in test [4] was “inhibits”; in test [4] (listed as Reserpine), “inhibit this transport activity”.
